Test results reported in ChEMBL document CHEMBL5390234 (Bioorg Med Chem Lett, 2023).
Converted amounts (≈) assume the structure as drawn.

What was measured:
[1] = Lipophilicity, logD of compound at pH 7.4; format: physicochemical; details: buffer
[2] = Volume of distribution at steady state in mouse; format: ADME, organism-based; details: in vivo, read-out: Vdss
[3] = AUC (0 to t) in mouse plasma at 30 mg/kg, po; format: ADME, organism-based; design: dose 30 mg/kg, route po
[4] = Oral bioavailability in mouse at 30 mg/kg; format: ADME, organism-based; details: in vivo
[5] = Apparent permeability of compound across apical to basolateral in human Caco-2 cells at 10 uM; format: ADME, cell-based
[6] = Oral bioavailability in mouse at 1 mg/kg or 0.5 mg/kg, iv; format: ADME, organism-based; details: in vivo
[7] = Solubility of the compound in aqueous phosphate buffer at pH 7.4 incubated for 24 hrs; format: physicochemical
[8] = AUC (0 to t) in mouse plasma at 1 mg/kg, po; format: ADME, organism-based; design: dose 1 mg/kg, route po

logD [1] | Vd [2] | Papp A→B at 10 µM [5] | SMILES | further results
0.8 |  |  | CCNc1nc(N)nc2nc(-c3ccc[nH]c3=O)ccc12 | 
 | 7.8 L/kg | 4.2 ×10⁻⁶ cm/s | CC1(Nc2nc(N)nc3nc(-c4cc[nH]n4)ccc23)CC1 | AUC(0-t) [3]: 7.5 µM·h; bioavailability [4]: 70%; bioavailability [6]: 56%; solubility at 24 h [7]: 910 µM (≈ 256 µg/mL); AUC(0-t) [8]: 0.2 µM·h
2.1 |  |  | CCNc1nc(N)nc2cc(-n3cccn3)cnc12 | 
1.5 |  |  | CCNc1cc(N)nc2cc(-n3cccn3)ccc12 | 
0.5 |  |  | Nc1cc(NCCn2cccn2)c2ccccc2n1 | 
1.4 |  |  | Nc1nc(NCCn2cccn2)c2ccc(-c3cc[nH]n3)nc2n1 | 
 | 4.7 L/kg | 9 ×10⁻⁶ cm/s | CC1(Nc2nc(N)nc3cc(-c4cc[nH]n4)ccc23)CC1 | bioavailability [6]: 25%; solubility at 24 h [7]: > 1000 µM
1.8 |  |  | c1cnn(CCNc2ccnc3cc(-n4cccn4)ccc23)c1 | 
2 |  |  | CCNc1nc(N)nc2nc(-n3cccn3)ccc12 | 
1.7 | 3.1 L/kg | 2.3 ×10⁻⁶ cm/s | Nc1cc(NCCn2cccn2)c2ccc(-n3cccn3)cc2n1 | bioavailability [6]: 1.1%
1.4 |  |  | CCNc1nc(N)nc2nc(-c3cc[nH]n3)ccc12 | 
1.8 |  |  | CCNc1nc(N)nc2cc(-c3cc[nH]n3)ccc12 | 
 | 13 L/kg | 3.7 ×10⁻⁶ cm/s | Nc1nc(NC2CC2)c2ccc(-c3cc[nH]n3)nc2n1 | bioavailability [6]: 7.5%; solubility at 24 h [7]: > 1000 µM
1.8 |  |  | CCNc1nc(N)nc2cc(-n3cccn3)ccc12 | 
1.8 | 0.8 L/kg | 0.6 ×10⁻⁶ cm/s | CCN(Cc1nc2c(N)nc3cc(-c4cc[nH]n4)ccc3c2[nH]1)C(C)=O [BMS-986299] | 
